The source of these data is patent US7125990B2, “Imidazolyl derivatives as corticotropin releasing factor inhibitors” (Bristol-Myers Squibb COmpany, priority 2001, dated 2006).

pKi: −log10 of the molar value. Some results are limits rather than exact numbers.

The target in the assay is T1, CRF1 receptors (Homo sapiens, UniProt P34998).
T1 construct: endogenous in cells; host or cells: IMR-32 cells, transformed with 2.5 µM 5'-bromo-2'-deoxyuridine for 10 days; membrane preparation
T1 sequence (P34998 24-415): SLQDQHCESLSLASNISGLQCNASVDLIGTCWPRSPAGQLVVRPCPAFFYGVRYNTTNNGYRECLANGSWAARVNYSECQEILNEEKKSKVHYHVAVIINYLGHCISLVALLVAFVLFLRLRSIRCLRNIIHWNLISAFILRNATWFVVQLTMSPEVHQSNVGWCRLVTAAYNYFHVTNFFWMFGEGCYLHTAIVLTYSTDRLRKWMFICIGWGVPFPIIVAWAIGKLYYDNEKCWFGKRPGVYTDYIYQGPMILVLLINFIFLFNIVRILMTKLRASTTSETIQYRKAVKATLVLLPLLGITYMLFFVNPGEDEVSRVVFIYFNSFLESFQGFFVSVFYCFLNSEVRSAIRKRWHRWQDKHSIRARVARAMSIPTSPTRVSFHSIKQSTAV
The assay is described as follows: CRF1 receptor radioligand binding assay ([125I]-oCRF competition, IMR-32 cell membranes). As to conditions: IMR-32 cell membranes, [125I]-oCRF 100 pM; read-out: Ki (CRF-1R). The method in brief: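 Buffer: Tris pH 7.2 with MgCl2, BSA, Triton X-100, aprotinin, leupeptin; reaction stopped with ice-cold wash and filtered. Nonspecific binding set with 10 μM oCRF.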

As to `CCCCN(CC)Cc1c(C(F)(F)F)nc2n(-c3c(C)cc(C)cc3C)c3ncccc3n12` [Example 231, Butyl-ethyl-[2-trifluoromethyl-8-(2,4,6-trimethyl-phenyl)-8H-1,3a,7,8-tetraaza-cyclopenta[α]inden-3-ylmethyl]-amine], the pKi – broadly, the negative decadic logarithm of the Ki, by convention in mol/L – was over 6.00. With `CCCN(CC1CC1)C(=O)c1c(CC)nc2n1CCN2c1c(C)cc(C)cc1Cl` [Example 28, 7-(2-Chloro-4,6-dimethyl-phenyl)-2-ethyl-6,7-dihydro-5H-imidazo[1,2-a]imidazole-3-carboxylic acid cyclopropylmethyl-propyl-amide], the negative-log Ki (pKi) was over 7.00.

Consider `CCCN(CCc1ccccc1)Cc1c(C(F)(F)F)nc2n(-c3ccc(C(C)C)cc3Br)c3ccccc3n12` [Example 193, [8-(2-Bromo-4-isopropyl-phenyl)-2-trifluoromethyl-8H-1,3a,8-triaza-cyclopenta[α]inden-3-ylmethyl]-phenethyl-propyl-amine], for which the pKi was over 6.00.

On to `CCCN(Cc1c(C(F)(F)F)nc2n(-c3c(C)cc(C)cc3C)c(Cl)cn12)CC(F)(F)C(F)(F)F` [Example 323, [6-Chloro-2-trifluoromethyl-7-(2,4,6-trimethyl-phenyl)-7H-imidazo[1,2-a]imidazol-3-ylmethyl]-(2,2,3,3,3-pentafluoro-propyl)-propyl-amine], for which the pKi was over 6.00. As to `CC(C)c1ccc(-n2c3ccccc3n3c(CN(CCC(F)(F)F)Cc4ccc(F)cc4)c(C(F)(F)F)nc23)c(Br)c1` [Example 199, [8-(2-Bromo-4-isopropyl-phenyl)-2-trifluoromethyl-8H-1,3a,8-triaza-cyclopenta[α]inden-3-ylmethyl]-(4-fluoro-benzyl)-(3,3,3-trifluoro-propyl)-amine], the pKi is over 5.00. The value for `C=CCN(CCC)Cc1c(C(F)(F)F)nc2n(-c3ccc(C(C)C)cc3Br)c3ccccc3n12` [Example 198, Allyl-[8-(2-bromo-4-isopropyl-phenyl)-2-trifluoromethyl-8H-1,3a,8-triaza-cyclopenta[α]inden-3-ylmethyl]-propyl-amine] was over 6.00. Take `CCCCN(CC)C(=O)c1c(CC)nc2n1CCN2c1c(C)cc(C)cc1C` [Example 15, 2-Ethyl-7-(2,4,6-trimethyl-phenyl)-6,7-dihydro-5H-imidazo[1,2-a]imidazole-3-carboxylic acid butyl-ethyl-amide]: the pKi was over 6.00. Consider `CC(C)c1ccc(-n2c3ccccc3n3c(CN(CCC4CC4)CC(F)(F)F)c(C(F)(F)F)nc23)c(Br)c1` [Example 204, [8-(2-Bromo-4-isopropyl-phenyl)-2-trifluoromethyl-8H-1,3a,8-triaza-cyclopenta[α]inden-3-ylmethyl]-(2-cyclopropyl-ethyl)-(2,2,2-trifluoro-ethyl)-amine], for which the negative-log Ki (pKi) was over 5.00. In the case of `CCCN(CCC)Cc1c(CC)nc2n(-c3ccc(Cl)cc3Cl)c(Cl)cn12` [Example 288, 3-[(N,N-Dipropylamino)methyl]-6-chloro-2-ethyl-7-(2,4-diclorophenyl)-7H-imidazo[1,2-a]imidazole], the pKi is over 7.00. Take `CCCCN(C)Cc1c(C(F)(F)F)nc2n1CCCN2c1c(C)cc(C)cc1Cl` [Example 104, Butyl-[8-(2-chloro-4,6-dimethyl-phenyl)-2-trifluoromethyl-5,6,7,8-tetrahydro-imidazo[1,2-a]pyrimidin-3-ylmethyl]-methyl-amine]: the negative logarithm of the Ki (pKi) was over 6.00. Turning to `CCCN(Cc1c(C(F)(F)F)nc2n(-c3ccc(Cl)cc3Cl)c3ccccc3n12)CC1CCC1` [Example 186, Cyclobutylmethyl-[8-(2,4-dichloro-phenyl)-2-trifluoromethyl-8H-1,3a,8-triaza-cyclopenta[α]inden-3-ylmethyl]-propyl-amine], the negative logarithm of the Ki (pKi) is over 5.00. `Cc1cc(C)c(-n2c3ncccc3n3c(CN(CCc4ccccc4)CCC(F)(F)F)c(C(F)(F)F)nc23)c(C)c1` [Example 226, Phenethyl-[2-trifluoromethyl-8-(2,4,6-trimethyl-phenyl)-8H-1,3a,7,8-tetraaza-cyclopenta[a]inden-3-ylmethyl]-(3,3,3-trifluoro-propyl)-amine]: the negative logarithm of the Ki (pKi) was over 6.00. `CCCN(CCC(F)(F)F)C(=O)c1c(CC)nc2n1CCN2c1c(C)cc(C)cc1Br` [Example 45, 7-(2-Bromo-4,6-dimethyl-phenyl)-2-ethyl-6,7-dihydro-5H-imidazo[1,2-a]imidazole-3-carboxylic acid propyl-(3,3,3-trifluoro-propyl)-amide]: the negative-log Ki (pKi) is over 6.00. For `CCCN(CC1CC1)C(=O)c1c(CC)nc2n1CCCN2c1c(C)cc(C)cc1C` [Example 54, 2-Ethyl-8-(2,4,6-trimethyl-phenyl)-5,6,7,8-tetrahydro-imidazo[1,2-a]pyrimidine-3-carboxylic acid cyclopropylmethyl-propyl-amide], the pKi was over 5.00. Regarding `Cc1cc(C)c(N2CCCn3c2nc(C(F)(F)F)c3CN2CCCC2Cc2ccccc2)c(C)c1` (centres unmarked) [Example 347, 3-(2-Benzyl-pyrrolidin-1-ylmethyl)-2-trifluoromethyl-8-(2,4,6-trimethyl-phenyl)-5,6,7,8-tetrahydro-imidazo[1,2-a]pyrimidine], the negative-log Ki (pKi) was over 8.00. Take `CCN(Cc1ccccc1)Cc1c(C(F)(F)F)nc2n(-c3c(C)cc(C)cc3C)c3ccccc3n12` [Example 173, Benzyl-ethyl-[2-trifluoromethyl-8-(2,4,6-trimethyl-phenyl)-8H-1,3a,8-triaza-cyclopenta[α]inden-3-ylmethyl]-amine]: the pKi was over 5.00. Consider `Cc1cc(C)c(-n2c3ccccc3n3c(CN(CCC4CC4)CC(F)(F)F)c(C(F)(F)F)nc23)c(C)c1` [Example 169, (2-Cyclopropyl-ethyl)-(2,2,2-trifluoro-ethyl)-[2-trifluoromethyl-8-(2,4,6-trimethyl-phenyl)-8H-1,3a,8-triaza-cyclopenta[α]inden-3-ylmethyl]-amine], for which the pKi was over 6.00.
